From ChEMBL document CHEMBL1201862, “PubChem BioAssay data set” (2004)
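Interpolation was linear, between the two tested concentrations surrounding the appropriate level; five concentrations were tested over 48 hours in 96-well plates. GI50 is the concentration that inhibits growth by half.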 The source made the active and inactive calls. Rule as the data show it: active = GI50 up to about 1.1 µM and inactive = higher.

Columns and labels:
Test in all cases: NCI-60 cell line screen, 48 h
CAKI-1 = test system: CAKI-1
SF-295 = test system: SF-295
MDA-MB-435 = test system: MDA-MB-435
LOX IMVI = test system: LOX IMVI
HOP-92 = test system: HOP-92
ACHN = test system: ACHN
UO-31 = test system: UO-31
KM12 = test system: KM12
M14 = test system: M14
SK-MEL-28 = test system: SK-MEL-28
NCI/ADR-RES = test system: NCI/ADR-RES
SK-MEL-2 = test system: SK-MEL-2
OVCAR-4 = test system: OVCAR-4
SF-268 = test system: SF-268
OVCAR-5 = test system: OVCAR-5
SNB-75 = test system: SNB-75
A498 = test system: A498
OVCAR-8 = test system: OVCAR-8
SK-OV-3 = test system: SK-OV-3

Measured: GI50

CCN(CC)CCN(C)CCc1ccc(Br)cc1
inactive: CAKI-1 > 100 µM | SF-295 51.5 µM | MDA-MB-435 53.1 µM | LOX IMVI 42.9 µM | HOP-92 27.4 µM | ACHN > 100 µM | UO-31 83.8 µM | KM12 51.2 µM | M14 17.2 µM | SK-MEL-28 41.7 µM | NCI/ADR-RES 79.4 µM | SK-MEL-2 > 100 µM | OVCAR-4 97.3 µM | SF-268 > 100 µM | OVCAR-5 48 µM | SNB-75 46.7 µM | A498 13.8 µM | OVCAR-8 > 100 µM | SK-OV-3 > 100 µM

O=C(O)CC1(CC(=O)O)Nc2ccccc2SC1=O
inactive: CAKI-1 > 100 µM | SF-295 > 100 µM | MDA-MB-435 > 100 µM | LOX IMVI > 100 µM | HOP-92 > 100 µM | ACHN > 100 µM | UO-31 > 100 µM | KM12 > 100 µM | M14 > 100 µM | SK-MEL-28 > 100 µM | NCI/ADR-RES > 100 µM | SK-MEL-2 > 100 µM | OVCAR-4 > 100 µM | SF-268 > 100 µM | OVCAR-5 > 100 µM | SNB-75 > 100 µM | A498 > 100 µM | OVCAR-8 > 100 µM | SK-OV-3 > 100 µM

Nc1nc(N)c2cc(-c3cc4ccccc4[nH]3)ccc2n1
inactive: CAKI-1 27.4 µM | SF-295 27.6 µM | MDA-MB-435 18.5 µM | LOX IMVI 18.5 µM | HOP-92 12.2 µM | ACHN 18.9 µM | UO-31 15.7 µM | KM12 17.8 µM | M14 17.6 µM | SK-MEL-28 22.2 µM | NCI/ADR-RES 30.3 µM | SK-MEL-2 18.2 µM | OVCAR-4 21.9 µM | SF-268 22.2 µM | OVCAR-5 18.6 µM | SNB-75 32.4 µM | A498 18.1 µM | OVCAR-8 32.5 µM | SK-OV-3 45.3 µM

CC(C)NC(=O)CN1CCN(C2=CC(=O)c3c(O)ccc(O)c3C2=O)CC1
inactive: CAKI-1 26.2 µM | SF-295 15.6 µM | MDA-MB-435 1.93 µM | LOX IMVI 6.1 µM | HOP-92 21.9 µM | ACHN 21.2 µM | UO-31 18.3 µM | KM12 16.6 µM | M14 9.33 µM | SK-MEL-28 17.1 µM | NCI/ADR-RES 3.9 µM | SK-MEL-2 16.6 µM | OVCAR-4 7.45 µM | SF-268 24.3 µM | OVCAR-5 18.7 µM | SNB-75 18.2 µM | A498 24.2 µM | OVCAR-8 9.04 µM | SK-OV-3 26.1 µM

C[C@]12CC[C@H](O)CC1=CC[C@@H]1[C@@H]2CC[C@]2(C)C(=O)[C@@H](N3CCOCC3)C[C@@H]12
inactive: CAKI-1 3.26 µM | SF-295 > 100 µM | MDA-MB-435 > 100 µM | LOX IMVI > 100 µM | HOP-92 50.5 µM | ACHN > 100 µM | UO-31 > 100 µM | KM12 > 100 µM | M14 78.5 µM | SK-MEL-28 > 100 µM | NCI/ADR-RES 61.2 µM | SK-MEL-2 > 100 µM | OVCAR-4 > 100 µM | SF-268 48.4 µM | OVCAR-5 > 100 µM | SNB-75 30.6 µM | A498 > 100 µM | OVCAR-8 47.1 µM | SK-OV-3 > 100 µM

Cc1cn(C2OC(CO)C(O)C2F)c(=O)[nH]c1=O (stereo not given)
inactive: CAKI-1 > 100 µM | SF-295 > 100 µM | MDA-MB-435 > 100 µM | LOX IMVI 24.1 µM | HOP-92 > 100 µM | ACHN 89.7 µM | UO-31 > 100 µM | KM12 > 100 µM | M14 41.8 µM | SK-MEL-28 > 100 µM | NCI/ADR-RES 64 µM | SK-MEL-2 > 100 µM | OVCAR-4 > 100 µM | SF-268 > 100 µM | OVCAR-5 > 100 µM | SNB-75 > 100 µM | A498 > 100 µM | OVCAR-8 > 100 µM | SK-OV-3 > 100 µM

CCOC(=O)c1c(SC)nc(-c2ccc(Cl)cc2)sc1=N.[O-][Cl+3]([O-])([O-])O
inactive: CAKI-1 35.5 µM | SF-295 28.2 µM | MDA-MB-435 34 µM | LOX IMVI 36.4 µM | HOP-92 80.2 µM | ACHN 40.1 µM | UO-31 33.8 µM | KM12 30.8 µM | M14 45.4 µM | SK-MEL-28 61.9 µM | NCI/ADR-RES 23.7 µM | SK-MEL-2 20.2 µM | OVCAR-4 30.8 µM | SF-268 29.4 µM | OVCAR-5 59.2 µM | SNB-75 25.1 µM | A498 31.5 µM | OVCAR-8 23.5 µM | SK-OV-3 37.2 µM

C[N+]12CCCCC1C(CN1C(=O)c3ccccc3C1=O)CCC2 (stereo not given)
inactive: CAKI-1 > 100 µM | SF-295 > 100 µM | MDA-MB-435 > 100 µM | LOX IMVI > 100 µM | HOP-92 > 100 µM | ACHN > 100 µM | UO-31 > 100 µM | KM12 > 100 µM | M14 > 100 µM | SK-MEL-28 > 100 µM | NCI/ADR-RES > 100 µM | SK-MEL-2 > 100 µM | OVCAR-4 > 100 µM | SF-268 > 100 µM | OVCAR-5 > 100 µM | SNB-75 > 100 µM | A498 > 100 µM | OVCAR-8 > 100 µM | SK-OV-3 > 100 µM

COC(=O)c1ccccc1CC1Cc2cc3c(cc2C1)CCC3
inactive: CAKI-1 37.9 µM | SF-295 33.7 µM | MDA-MB-435 29.4 µM | LOX IMVI 24 µM | HOP-92 26.9 µM | ACHN 36.6 µM | UO-31 39.4 µM | KM12 26.5 µM | M14 38.8 µM | SK-MEL-28 29.3 µM | NCI/ADR-RES > 100 µM | SK-MEL-2 19.4 µM | OVCAR-4 39.5 µM | SF-268 40.8 µM | OVCAR-5 50.4 µM | SNB-75 26.7 µM | A498 49.4 µM | OVCAR-8 56.8 µM | SK-OV-3 49.4 µM

CCOC(=O)NC(NC1=NCCS1)(C(=O)OCC)C(F)(F)F (stereo not given)
inactive: CAKI-1 > 100 µM | SF-295 > 100 µM | MDA-MB-435 > 100 µM | LOX IMVI > 100 µM | HOP-92 > 100 µM | ACHN > 100 µM | UO-31 > 100 µM | KM12 > 100 µM | M14 > 100 µM | SK-MEL-28 > 100 µM | NCI/ADR-RES > 100 µM | SK-MEL-2 > 100 µM | OVCAR-4 > 100 µM | SF-268 > 100 µM | OVCAR-5 > 100 µM | SNB-75 > 100 µM | A498 > 100 µM | OVCAR-8 > 100 µM | SK-OV-3 > 100 µM
